According to US20260055096A1, “AZOLE PESTICIDAL COMPOUNDS” (BASF SE, priority 2022, published 2026):

Assays:
Format in all cases: in vivo
[1] = system: boll weevil (Anthonomus grandis); assay: Example B.3: Action on boll weevil (Anthonomus grandis), egg and larval mortality on insect diet; conditions: 120 h, egg and larval mortality after 5 days, read-out: mortality in comparison with untreated controls
Procedure: For evaluating control of boll weevil (Anthonomus grandis) the test unit consisted of 96-well-microtiter plates containing an insect diet and 5-10 A. grandis eggs.
The compounds were formulated using a solution containing 75% (v/v) water and 25% (v/v) DMSO. Different concentrations of formulated compounds were sprayed onto the insect diet at […], using a custom-built micro atomizer, at two replications.
After application, microtiter plates were incubated at about 25±1C and about 75±5% relative humidity for 5 days. Egg and larval mortality were then visually assessed.

[2] = system: Southern armyworm (Spodoptera eridania), 2nd instar larvae; assay: Example B.7: Action on southern armyworm (Spodoptera eridania), 2nd instar larvae on sprayed lima bean plants; conditions: 96 h, 4 days after treatment, read-out: mortality in comparison with untreated controls
Procedure: The active compounds were formulated by a Tecan liquid handler in 100% cyclohexanone as a 10,000-ppm solution supplied in tubes. The 10,000-ppm solution was serially diluted in 100% cyclohexanone to make interim solutions. These served as stock solutions for which final dilutions were made by the Tecan in 50% acetone:50% water (v/v) into 10 or 20 ml glass vials. A nonionic surfactant (Kinetic®) was included in the solution at a volume of 0.01% (v/v). The vials were then inserted into an automated electrostatic sprayer equipped with an atomizing nozzle for application to plants/insects.
Lima bean plants (variety Sieva) were grown 2 plants to a pot and selected for treatment at the 1st true leaf stage. Test solutions were sprayed onto the foliage by an automated electrostatic plant sprayer equipped with an atomizing spray nozzle. The plants were dried in the sprayer fume hood and then removed from the sprayer. Each pot was placed into perforated plastic bags with a zip closure. About 10 to 11 armyworm larvae were placed into the bag and the bags zipped closed. Test plants were maintained in a growth room at about 25° C. and about 20-40% relative humidity for 4 days, avoiding direct exposure to fluorescent light (24-hour photoperiod) to prevent trapping of heat inside the bags. Mortality and reduced feeding were assessed 4 days after treatment, compared to untreated control plants.

[3] = system: Silverleaf whitefly (Bemisia argentifolii) (adults); assay: Example B.4: Action on silverleaf whitefly (Bemisia argentifolii) adults on sprayed cotton plants; conditions: 72 h, 3 days after treatment, read-out: mortality in comparison with untreated controls
Procedure: The active compounds were formulated by a Tecan liquid handler in 100% cyclohexanone as a 10,000-ppm solution supplied in tubes. The 10,000-ppm solution was serially diluted in 100% cyclohexanone to make interim solutions. These served as stock solutions for which final dilutions were made by the Tecan in 50% acetone:50% water (v/v) into 5 or 10 ml glass vials. A nonionic surfactant (Kinetic®) was included in the solution at a volume of 0.01% (v/v). The vials were then inserted into an automated electrostatic sprayer equipped with an atomizing nozzle for application to plants/insects.
Cotton plants at the cotyledon stage (one plant per pot) were sprayed by an automated electrostatic plant sprayer equipped with an atomizing spray nozzle. The plants were dried in the sprayer fume hood and then removed from the sprayer. Each pot was placed into a plastic cup and about 10 to 12 whitefly adults (approximately 3-5 days old) were introduced. The insects were collected using an aspirator and a nontoxic Tygon® tubing connected to a barrier pipette tip. The tip, containing the collected insects, was then gently inserted into the soil containing the treated plant, allowing insects to crawl out of the tip to reach the foliage for feeding. Cups were covered with a reusable screened lid. […] Mortality was assessed 3 days after treatment, compared to untreated control plants.

[4] = system: yellow fever mosquito (Aedes aegypti); assay: whole plant or invertebrate; conditions: 48 h, larval mortality after 2 days, read-out: mortality in comparison with untreated controls
Procedure: For evaluating control of yellow fever mosquito (Aedes aegypti) the test unit consisted of 96-well-microtiter plates containing 200 μl of tap water per well and 5-15 freshly hatched A. aegypti larvae.
The active compounds or mixtures were formulated using a solution containing 75% (v/v) water and 25% (v/v) DMSO. Different concentrations of formulated compounds or mixtures were sprayed onto the insect diet at 2.5 μl, using a custom-built micro atomizer, at two replications.
For experimental mixtures in these tests identical volumes of both mixing partners at the desired concentrations respectively, were mixed together.
After application, microtiter plates were incubated at 28 #1° C., 80 #5% RH for 2 days. Larval mortality was then visually assessed.

[5] = system: Orchid thrips (Dichromothrips corbetti); assay: Example B.2: Action on orchid thrips (Dichromothrips corbetti), floral-immersion technique; conditions: 72 hours after treatment, read-out: mortality in comparison with untreated controls
Procedure: Dichromothrips corbetti adults used for bioassay were obtained from a colony maintained continuously under laboratory conditions. For testing purposes, the test compound is diluted in a 1:1 mixture of acetone:water (vol:vol), plus Kinetic® HV at a rate of 0.01% v/v.
Thrips potency of each compound was evaluated by using a floral-immersion technique. All petals of individual, intact orchid flowers were dipped into treatment solution and allowed to dryin Petri dishes. Treated petals were placed into individual re-sealable plastic along with about 20 adult thrips. All test arenas were held under continuous light and a temperature of about 28° C. for duration of the assay. After 3 days, the numbers of live thrips were counted on each petal. The percent mortality was recorded 72 hours after treatment.

[6] = system: tobacco budworm (Heliothis virescens); assay: Example B.5: Action on tobacco budworm (Heliothis virescens), egg and larval mortality on insect diet; conditions: 120 h, egg and larval mortality after 5 days, read-out: mortality in comparison with untreated controls
Procedure: For evaluating control of tobacco budworm (Heliothis virescens) the test unit consisted of 96-well-microtiter plates containing an insect diet and 15-25 H. virescens eggs.
The compounds were formulated using a solution containing 75% v/v water and 25% v/v DMSO. Different concentrations of formulated compounds were sprayed onto the insect diet at 10 μl, using a custom-built micro atomizer, at two replications.
After application, microtiter plates were incubated at about 28±1C and about 80±5% relative humidity for 5 days. Egg and larval mortality were then visually assessed.

[7] = system: Diamond back moth (Plutella xylostella); assay: Example B.6: Action on diamond back moth (Plutella xylostella), cabbage leaf dip, 3rd instar larvae; conditions: foliar, 72 hours after treatment, read-out: mortality in comparison with untreated controls
Procedure: The active compound is dissolved at the desired concentration in a mixture of 1:1 (v/v) distilled water: acetone. Surfactant (Kinetic® HV) is added at a rate of 0.01% (v/v). The test solution is prepared at the day of use.
Leaves of cabbage were dipped in test solution and air-dried. Treated leaves were placed in petri dishes lined with moist filter paper and inoculated with ten 3rd instar larvae. Mortality was recorded 72 hours after treatment. Feeding damages were also recorded using a scale of 0-100%.

Cc1ccc(C(C)C)c(N2C(=O)CS/C2=N\C(=O)Nc2ccc(-c3nc(NC(=O)c4ccc(OC(F)(F)F)cc4)n(C)n3)cc2Cl)c1 [Example C-6, N-[5-[3-chloro-4-[[(Z)-[3-(2-isopropyl-5-methyl-phenyl)-4-oxo-thiazolidin-2-ylidene]carbamoyl]amino]phenyl]-2-methyl-1,2,4-triazol-3-yl]-4-(trifluoromethoxy)benzamide]
mortality at 800 ppm [1]: ≥ 75%
mortality at 300 ppm [2]: ≥ 75%
mortality at 300 ppm [3]: ≥ 75%
mortality at 800 ppm [4]: ≥ 50%
mortality at 300 ppm [5]: ≥ 75%
mortality at 800 ppm [6]: ≥ 75%
mortality at 300 ppm [7]: ≥ 75%
